Measurements taken from EP0463456A1, “Phosphorus-containing HMG-CoA reductase inhibitors, new intermediates and their use” (E.R. SQUIBB & SONS, INC., priority 1990, dated 1992).

Biological target: T1, Rat hepatic HMG-CoA reductase (Rattus norvegicus, UniProt P51639)
T1 construct: Livers are removed from 2-4 cholestyramine-fed, decapitated, Sprague Dawley rats, and homogenized in phosphate buffer A; from tissue; host or cells: liver microsomes of cholestyramine-fed Sprague Dawley rats
T1 sequence (P51639 1-887): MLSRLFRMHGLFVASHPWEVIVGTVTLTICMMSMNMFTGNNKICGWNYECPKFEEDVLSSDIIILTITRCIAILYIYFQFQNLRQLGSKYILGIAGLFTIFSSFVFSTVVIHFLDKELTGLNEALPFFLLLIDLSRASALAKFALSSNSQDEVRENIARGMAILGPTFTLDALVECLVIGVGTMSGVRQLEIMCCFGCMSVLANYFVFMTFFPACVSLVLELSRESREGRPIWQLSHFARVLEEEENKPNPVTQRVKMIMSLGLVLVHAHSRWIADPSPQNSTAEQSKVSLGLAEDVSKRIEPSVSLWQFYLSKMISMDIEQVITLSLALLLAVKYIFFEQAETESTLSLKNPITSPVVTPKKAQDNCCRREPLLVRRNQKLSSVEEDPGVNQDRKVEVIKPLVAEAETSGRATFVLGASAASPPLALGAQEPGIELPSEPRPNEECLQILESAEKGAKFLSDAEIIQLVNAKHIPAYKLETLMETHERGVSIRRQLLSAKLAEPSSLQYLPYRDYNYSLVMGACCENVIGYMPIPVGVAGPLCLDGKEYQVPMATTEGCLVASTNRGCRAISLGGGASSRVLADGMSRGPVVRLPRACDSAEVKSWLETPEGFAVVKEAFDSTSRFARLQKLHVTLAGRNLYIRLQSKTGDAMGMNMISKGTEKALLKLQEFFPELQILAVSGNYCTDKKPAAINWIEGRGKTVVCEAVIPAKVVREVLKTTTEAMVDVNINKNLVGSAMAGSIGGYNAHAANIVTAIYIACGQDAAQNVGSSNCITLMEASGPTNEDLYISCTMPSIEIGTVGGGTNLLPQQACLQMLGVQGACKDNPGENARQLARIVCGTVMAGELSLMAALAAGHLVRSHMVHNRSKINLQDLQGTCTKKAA
Assay: Rat Hepatic HMG-CoA Reductase test (conversion of 14C-HMG-CoA to 14C-mevalonic acid by rat hepatic microsomes)
Assay type: biochemical
Settings: concentration producing 50% inhibition of enzyme activity, 100 µM HMG-CoA, 20 minutes at 37° C, read-out: Reductase 150
Protocol: 1) Rat Hepatic HMG-CoA Reductase
Rat hepatic HMG-CoA reductase activity is measured using a modification of the method described by Edwards (Edwards, P.A., et al., J. Lipid Res. 20:40, 1979). Rat hepatic microsomes are used as a source of enzyme, and the enzyme activity is determined by measuring the conversion of the ^14C-HMG-CoA substrate to 14C-mevalonic acid.
a. Preparation of Microsomes
Livers are removed from 2-4 cholestyramine-fed, decapitated, Sprague Dawley rats, and homogenized in phosphate buffer A (potassium phosphate, 0.04 M, pH 7.2; KCI, 0.05 M; sucrose, 0.1 M; EDTA, 0.03 M; aprotinin, 500 KI units/ml). The homogenate is spun at 16,000 x g for 15 minutes at 4°C. The supernatant is removed and recentrifuged under the same conditions a second time. The second 16,000 x g supernatant is spun at 100,000 x g for 70 minutes at 4° C. Pelleted microsomes are resuspended in a minimum volume of buffer A (3-5 ml per liver), and homogenized in a glass/glass homogenizer. […]
Standardized assays for the evaluation of inhibitors are conducted according to the following procedure. […] The first 0.5 ml is discarded, and the next 1.5 ml is collected and counted for both tritium and carbon 14 in 10.0 ml Opti-fluor scintillation fluid. Results are calculated as nmoles mevalonic acid produced per 20 minutes, and are corrected to 100% recovery of tritium. […]

## (S)-4-[[[4-(4-Fluorophenyl)-1,2-bis(1-methylethyl)-5-phenyl-1H-pyrrol-3-yl]-ethynyl]hydroxyphosphinyl]-3-hydroxybutanoic acid, dilithium salt [SQ 34,346]
  IC50: 0.6 nM
